Data on 18 molecules can be found in US20080275085A1, “Piperidine derivative and use thereof” (priority 2007, published 2008).

For orientation: melting point means the temperature of the solid-liquid transition. In general, IC50 refers to the concentration that inhibits the measured activity by half. Read a high IC50 as lower potency.

The target in data set [1] is T1, substance P receptor (Homo sapiens, UniProt P25103).
T1 construct: The receptor was prepared from human lymphoblast cells (IM-9); endogenous in cells; host or cells: IM-9 human lymphoblast cells (membrane fraction, 100,000xG precipitate)
As to the kind of experiment: Radioligand receptor binding inhibitory activity (125I-BHSP binding, receptor from IM-9 cells). The following applies: receptor from human lymphoblast cells (IM-9); radioligand 125I-BHSP; 25° C., 30 min. As to the method: Radioligand Receptor Binding Inhibitory Activity (Binding Inhibitory Activity Using Receptor from Human Lymphoblast Cells (IM-9))
The method of M. A. Cascieri et al., “Molecular Pharmacology, vol. 42, p. 458 (1992)” was modified and used. The receptor was prepared from human lymphoblast cells (IM-9).
IM-9 cells (2×10^5 cells/mL) were inoculated and incubated for 3 days, which was then subjected to centrifugation for 10 min. at 500×G to give cell pellets. The obtained pellets were washed with PBS (GIBCO), disrupted in buffer A (50 mM tris.hydrochloric acid buffer (pH 7.4) containing 120 mM sodium chloride, 5 mM potassium chloride, 2 μg/mL chymostatin, 40 μg/mL bacitracin, 40 μg/mL APMSF, 1 mM ethylenediamine tetra acetic acid) using a polytron.homogenizer [manufactured by Kinematika, Germany], and centrifuged at 100,000×G for 40 min. The precipitated fraction was suspended in buffer B (50 mM Tris-HCl (pH 7.4), 0.02% bovine serum albumin, 2 μg/mL chymostatin, 40 μg/mL bacitracin, 40 μg/mL APMSF, 3 mM MgCl2), which was then cryopreserved (−80° C.) as a receptor specimen.
Buffer B (50 μL) was added to a 96 well microassay plate (CORNING). Thereto was added 50 μL of membrane preparation suspended in buffer B at 250 μg/mL. A measurement buffer (50 μL) containing 2% dimethyl sulfoxide was added to examine total binding; 4 μM unlabeled SP (50 μL) diluted with a measurement buffer containing 2% dimethyl sulfoxide was added to examine non-specific binding; and 50 μL of a test compound (containing 2% dimethyl sulfoxide) diluted with a measurement buffer was added to examine binding inhibitory activity of the test compound. In addition, […] ^125I-BHSP solution (50 μL) was added to each well.
After reaction at 25° C. for 30 min, the cells were rapidly filtered through a GF/C filter plate (PerkinElmer) using a cell harvester (manufactured by PerkinElmer) to quench the reaction, and washed 10 times with 250 μL of 50 mM tris-HCl buffer (pH 7.4) containing 0.02% bovine serum albumin. The GF/C filter plate was dried, MicroScinti 0 (20 μL) was added, and the radioactivity was measured with TopCount (manufactured by PerkinElmer). The GF/C filter plate was immersed in 0.3% polyethylene imine for one day before use.
Specific binding is a value obtained by subtracting nonspecific binding from total binding. The binding inhibitory activity of a test compound is shown by a ratio of a value obtained by subtracting a measurement value with addition of a test compound from the total binding, relative to specific binding.
The antagonistic activity of the compounds obtained in the Examples was determined as a concentration necessary for causing 50% inhibition (IC50 value) under the above-described conditions, and the results shown in Table 34 were obtained.
The radio ligand means substance P labeled with [^125I].

Where a name gives a salt, the structure may show the parent alone.

T1 sequence (P25103 whole entry): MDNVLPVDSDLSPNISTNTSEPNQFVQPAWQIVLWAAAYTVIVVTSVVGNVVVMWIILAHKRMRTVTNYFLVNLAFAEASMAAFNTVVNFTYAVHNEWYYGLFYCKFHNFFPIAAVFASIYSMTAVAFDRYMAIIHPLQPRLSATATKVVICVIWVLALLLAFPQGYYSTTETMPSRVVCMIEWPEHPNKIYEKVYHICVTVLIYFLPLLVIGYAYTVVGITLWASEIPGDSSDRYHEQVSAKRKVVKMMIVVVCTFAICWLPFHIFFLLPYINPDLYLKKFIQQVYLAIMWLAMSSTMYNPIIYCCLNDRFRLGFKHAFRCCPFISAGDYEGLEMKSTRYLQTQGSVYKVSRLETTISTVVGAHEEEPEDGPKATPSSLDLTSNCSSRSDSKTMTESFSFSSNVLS

Turning to `Cc1cc(F)ccc1[C@H]1CN(CC(N)=O)CC[C@@H]1C(=O)N(C)[C@H](C)c1cc(C(F)(F)F)cc(C(F)(F)F)c1.Cl` (hydrate or solvate), the melting point was in the range of 133 to 139 °C.

The molecule `Cc1cc(F)ccc1[C@H]1CN(C(=O)C2CCN(C(=O)CO)CC2)CC[C@@H]1C(=O)N(C)[C@@H](C)c1cc(C(F)(F)F)cc(C(F)(F)F)c1` (hydrate or solvate) [Example 152, (3S,4S)—N-{(1S)-1-[3,5-bis(trifluoromethyl)phenyl]ethyl}-3-(4-fluoro-2-methylphenyl)-1-[(1-glycoloylpiperidin-4-yl)carbonyl]-N-methylpiperidine-4-carboxamide] registered a melting point of 108 to 116 °C.

The molecule `Cc1cc(F)ccc1[C@H]1CN(C(=O)c2cncnc2)CC[C@@H]1C(=O)N(C)[C@@H](C)c1cc(C(F)(F)F)cc(C(F)(F)F)c1` (hydrate or solvate) [Example 158, (3S,4S)—N-{(1S)-1-[3,5-bis(trifluoromethyl)phenyl]ethyl}-3-(4-fluoro-2-methylphenyl)-N-methyl-1-(pyrimidin-5-ylcarbonyl)piperidine-4-carboxamide] returned a melting point of 185 to 188 °C.

`Cc1cc(F)ccc1[C@@H]1CN(C2CCN(C(=O)C(N)=O)CC2)CC[C@H]1C(=O)N(C)Cc1cc(C(F)(F)F)cc(C(F)(F)F)c1` (relative stereo) (as salt: hydrochloride) (hydrate or solvate) [Example 108, (3R*,4R*)-1′-[amino(oxo)acetyl]-N-[3,5-bis(trifluoromethyl)benzyl]-3-(4-fluoro-2-methylphenyl)-N-methyl-1,4′-bipiperidine-4-carboxamide monohydrochloride] yielded a melting point of 175 to 176 °C.

As for `Cc1cc(F)ccc1[C@@H]1CN(C2CCN(C(N)=O)CC2)CC[C@H]1C(=O)N(C)Cc1cc(C(F)(F)F)cc(C(F)(F)F)c1` (relative stereo) (as salt: hydrochloride) (hydrate or solvate) [Example 109, (3R*,4R*)—N^4-[3,5-bis(trifluoromethyl)benzyl]-3-(4-fluoro-2-methylphenyl)-N^4-methyl-1,4′-bipiperidine-1′,4-dicarboxamide monohydrochloride], the melting point fell in the range of 175 to 178 °C.

`Cc1cc(F)ccc1[C@@H]1CN(CC(N)=O)CC[C@H]1C(=O)N(C)Cc1cc(C(F)(F)F)cc(C(F)(F)F)c1` (relative stereo) (as salt: hydrochloride) (hydrate or solvate) [Example 112, (3R*,4R*)-1-(2-amino-2-oxoethyl)-N-[3,5-bis(trifluoromethyl)benzyl]-3-(4-fluoro-2-methylphenyl)-N-methylpiperidine-4-carboxamide monohydrochloride] registered a melting point of 175 to 177 °C.

Molecule `Cc1cc(F)ccc1[C@@H]1CN(CCC(C)(C)O)CC[C@H]1C(=O)N(C)Cc1cc(C(F)(F)F)cc(C(F)(F)F)c1` (relative stereo) (as salt: hydrochloride) (hydrate or solvate) [Example 123, (3R*,4R*)—N-[3,5-bis(trifluoromethyl)benzyl]-3-(4-fluoro-2-methylphenyl)-1-(3-hydroxy-3-methylbutyl)-N-methylpiperidine-4-carboxamide monohydrochloride] displayed a melting point of 126 to 128 °C.

`Cc1cc(F)ccc1[C@H]1CN(C(=O)CN2C(=O)OC(C)(C)C2=O)CC[C@@H]1C(=O)N(C)Cc1cc(C(F)(F)F)cc(C(F)(F)F)c1` [Example 148, (3S,4S)—N-[3,5-bis(trifluoromethyl)benzyl]-1-[(5,5-dimethyl-2,4-dioxo-1,3-oxazolidin-3-yl)acetyl]-3-(4-fluoro-2-methylphenyl)-N-methylpiperidine-4-carboxamide] registered a concentration for half-maximal inhibition (IC50) in data set [1] of 0.06 nM.

For `Cc1cc(F)ccc1[C@H]1CN(C(=O)C2CCN(C(=O)CO)CC2)CC[C@@H]1C(=O)N(C)Cc1cc(C(F)(F)F)cc(C(F)(F)F)c1` [Example 149, (3S,4S)—N-[3,5-bis(trifluoromethyl)benzyl]-3-(4-fluoro-2-methylphenyl)-1-[(1-glycoloylpiperidin-4-yl)carbonyl]-N-methylpiperidine-4-carboxamide], the IC50 in data set [1] is 0.015 nM. Compared with the last molecule, the IC50 is about 4-fold lower.

For `Cc1cc(F)ccc1[C@H]1CN(C(=O)C2CCN(C(=O)[C@H](C)O)CC2)CC[C@@H]1C(=O)N(C)Cc1cc(C(F)(F)F)cc(C(F)(F)F)c1` [Example 150, (3S,4S)—N-[3,5-bis(trifluoromethyl)benzyl]-3-(4-fluoro-2-methylphenyl)-1-({1-[(2S)-2-hydroxypropanoyl]piperidin-4-yl}carbonyl)-N-methylpiperidine-4-carboxamide], in data set [1], the 50% inhibitory concentration (IC50) came out at 0.033 nM. This IC50 lies about 2.2-fold higher than the previous one.

Turning to `Cc1cc(F)ccc1[C@H]1CN(C(=O)C2CCN(C(=O)[C@@H](C)O)CC2)CC[C@@H]1C(=O)N(C)Cc1cc(C(F)(F)F)cc(C(F)(F)F)c1` [Example 151, (3S,4S)—N-[3,5-bis(trifluoromethyl)benzyl]-3-(4-fluoro-2-methylphenyl)-1-({1-[(2R)-2-hydroxypropanoyl]piperidin-4-yl}carbonyl)-N-methylpiperidine-4-carboxamide], the half-inhibitory concentration (IC50) in data set [1] was 0.02 nM.

For `Cc1cc(F)ccc1[C@H]1CN(C(=O)C2CCN(C(=O)CO)CC2)CC[C@@H]1C(=O)N(C)[C@@H](C)c1cc(C(F)(F)F)cc(C(F)(F)F)c1` [Example 152, (3S,4S)—N-{(1S)-1-[3,5-bis(trifluoromethyl)phenyl]ethyl}-3-(4-fluoro-2-methylphenyl)-1-[(1-glycoloylpiperidin-4-yl)carbonyl]-N-methylpiperidine-4-carboxamide], in data set [1], the IC50 was found to be 0.015 nM.

Turning to `Cc1cc(F)ccc1[C@H]1CN(C(=O)CN2C(=O)OC(C)(C)C2=O)CC[C@@H]1C(=O)N(C)[C@@H](C)c1cc(C(F)(F)F)cc(C(F)(F)F)c1` [Example 154, (3S,4S)—N-{(1S)-1-[3,5-bis(trifluoromethyl)phenyl]ethyl}-1-[(5,5-dimethyl-2,4-dioxo-1,3-oxazolidin-3-yl)acetyl]-3-(4-fluoro-2-methylphenyl)-N-methylpiperidine-4-carboxamide], the 50% inhibitory concentration (IC50) in data set [1] stood at 0.097 nM.

Regarding `Cc1cc(F)ccc1[C@H]1CN(C(=O)c2cncnc2)CC[C@@H]1C(=O)N(C)[C@@H](C)c1cc(C(F)(F)F)cc(C(F)(F)F)c1` [Example 158, (3S,4S)—N-{(1S)-1-[3,5-bis(trifluoromethyl)phenyl]ethyl}-3-(4-fluoro-2-methylphenyl)-N-methyl-1-(pyrimidin-5-ylcarbonyl)piperidine-4-carboxamide], the IC50 in data set [1] is 0.033 nM.

In the case of `Cc1cc(F)ccc1[C@H]1CN(C(=O)CCS(C)(=O)=O)CC[C@@H]1C(=O)N(C)[C@@H](C)c1cc(C(F)(F)F)cc(C(F)(F)F)c1` [Example 160, (3S,4S)—N-{(1S)-1-[3,5-bis(trifluoromethyl)phenyl]ethyl}-3-(4-fluoro-2-methylphenyl)-N-methyl-1-[3-(methylsulfonyl)propanoyl]piperidine-4-carboxamide], the half-maximal inhibitory concentration (IC50) in data set [1] stood at 0.032 nM.

In data set [1], `Cc1cc(F)ccc1[C@H]1CN(C(=O)C(N)=O)CC[C@@H]1C(=O)N(C)[C@@H](C)c1cc(C(F)(F)F)cc(C(F)(F)F)c1` [Example 178, (3S,4S)-1-[amino(oxo)acetyl]-N-{(1S)-1-[3,5-bis(trifluoromethyl)phenyl]ethyl}-3-(4-fluoro-2-methylphenyl)-N-methylpiperidine-4-carboxamide] came in with a half-maximal inhibitory concentration (IC50) of 0.017 nM.

For the molecule `Cc1cc(F)ccc1[C@H]1CN(S(C)(=O)=O)CC[C@@H]1C(=O)N(C)[C@@H](C)c1cc(C(F)(F)F)cc(C(F)(F)F)c1` [Example 179, (3S,4S)—N-{(1S)-1-[3,5-bis(trifluoromethyl)phenyl]ethyl}-3-(4-fluoro-2-methylphenyl)-N-methyl-1-(methylsulfonyl)piperidine-4-carboxamide], the half-inhibitory concentration (IC50) in data set [1] came out at 0.049 nM.

In data set [1], `Cc1cc(F)ccc1[C@H]1CN(CCS(C)(=O)=O)CC[C@@H]1C(=O)N(C)[C@@H](C)c1cc(C(F)(F)F)cc(C(F)(F)F)c1` [Example 180, (3S,4S)—N-{(1S)-1-[3,5-bis(trifluoromethyl)phenyl]ethyl}-3-(4-fluoro-2-methylphenyl)-N-methyl-1-[2-(methylsulfonyl)ethyl]piperidine-4-carboxamide monohydrochloride] yielded an IC50 of 0.023 nM. Compared with the last molecule, the IC50 is about 2.1-fold lower.
